Values after ≈ are worked out from the molar mass of the structure shown.
Tested on: M17-SYNwt cells
Test: α-synuclein cytotoxicity assay (LDH leakage from paraquat-treated α-synuclein over-expressing neuroblastoma cells)
Format: cell-based, human
Settings: paraquat 32 mM, 40 hours, LDH release; for %I: percent inhibition of synuclein cytotoxicity at most effective concentration of test compound, relative to untreated paraquat cells; for EC50: Homo sapiens, Neuroblastoma cell, 10 point curves in duplicate
How it was run: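 M17 neuroblastoma cells over-expressing wild-type α-synuclein were challenged with paraquat, and cytotoxicity was read as LDH release. Protection was expressed as percent reduction of paraquat-induced LDH release relative to untreated paraquat cells and control cells. Actives were retested in 10-point duplicate dose responses.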

Compound	%I	EC50
O=C(NCCN1CCN(c2nc(Cc3ccc(F)cc3)ns2)CC1)c1cccc(F)c1 [Compound 105, 3-fluoro-N-{2-[4-[3-(4-fluorobenzyl)-1,2,4-thiadiazol-5-yl]piperazin-1-yl]ethyl}benzamide]	115%	–
O=C(NCCN1CCN(c2nc(Cc3ccccc3)ns2)CC1)c1cccc(F)c1 [Compound 106, 3-fluoro-N-{2-[4-[3-benzyl-1,2,4-thiadiazol-5-yl]piperazin-1-yl]ethyl}benzamide]	49%	–
O=C(Cc1ccc(F)cc1)NCCN1CCN(c2nc(Cc3ccc(F)cc3)ns2)CC1 [Compound 107, 2-(4-fluorophenyl)-N-{2-[4-[3-(4-fluorobenzyl)-1,2,4-thiadiazol-5-yl]piperazin-1-yl]ethyl}acetamide]	80%	0.26 µg/mL (≈ 0.568 µM)
O=C(Cc1ccccc1)NCCN1CCN(c2nc(Cc3ccc(F)cc3)ns2)CC1 [Compound 108, 2-phenyl-N-{2-[4-[3-(4-fluorobenzyl)-1,2,4-thiadiazol-5-yl]piperazin-1-yl]ethyl}acetamide]	63%	2.06 µg/mL (≈ 4.69 µM)
Cc1ccc(Cc2nsc(N3CCN(CCNC(=O)Cc4ccc(F)cc4)CC3)n2)cc1 [Compound 109, 2-(4-fluorophenyl)-N-{2-[4-[3-(4-methylbenzyl)-1,2,4-thiadiazol-5-yl]piperazin-1-yl]ethyl}acetamide]	93%	3.52 µg/mL (≈ 7.76 µM)
O=C(NCCN1CCN(c2nc(Cc3ccc(F)cc3)ns2)CC1)NCc1ccccc1 [Compound 110, N-benzyl-N'-{2-[4-[3-(4-fluorobenzyl)-1,2,4-thiadiazol-5-yl]piperazin-1-yl]ethyl}urea]	77%	–
Fc1ccc(Cc2nsc(N3CCN(Cc4ccccc4)CC3)n2)cc1 [Compound 113, 1-benzyl-4-[3-(4-fluorobenzyl)-1,2,4-thiadiazol-5-yl]piperazine]	65%	1.54 µg/mL (≈ 4.18 µM)
Fc1ccc(Cc2nsc(N3CCN(Cc4ccc5c(c4)OCO5)CC3)n2)cc1 [Compound 114, 1-(1,3-benzodioxol-5-ylmethyl)-4-[3-(4-fluorobenzyl)-1,2,4-thiadiazol-5-yl]piperazine]	86%	–
COc1cccc(Cc2nsc(N3CCN(C(=O)c4ccccc4F)C(C)C3)n2)c1 (centres unmarked) [Compound 115, 1-(2-fluorobenzoyl)-4-[3-(3-methoxybenzyl)-1,2,4-thiadiazol-5-yl]-2-methylpiperazine]	75%	0.0361 µg/mL (≈ 0.0846 µM)
CCc1ccc(C(=O)N2CCN(c3nc(Cc4ccc(F)cc4)ns3)CC2C)cc1 (centres unmarked) [Compound 116, 1-(4-ethylbenzoyl)-4-[3-(4-fluorobenzyl)-1,2,4-thiadiazol-5-yl]-2-methylpiperazine]	71%	0.0522 µg/mL (≈ 0.123 µM)
CCCCc1ccc(C(=O)N2CCN(c3nc(Cc4ccc(C)cc4)ns3)CC2C)cc1 (centres unmarked) [Compound 117, 1-(4-butylbenzoyl)-4-[3-(4-methylbenzyl)-1,2,4-thiadiazol-5-yl]-2-methylpiperazine]	82%	0.0841 µg/mL (≈ 0.187 µM)
COc1ccc(C(=O)N2CCN(c3nc(Cc4ccc(F)cc4)ns3)CC2C)cc1 (centres unmarked) [Compound 118, 1-(4-methoxybenzoyl)-4-[3-(4-fluorobenzyl)-1,2,4-thiadiazol-5-yl]-2-methylpiperazine]	64%	0.0911 µg/mL (≈ 0.214 µM)
COc1cccc(Cc2nsc(N3CCN(C(=O)c4ccc5c(c4)OCO5)C(C)C3)n2)c1 (centres unmarked) [Compound 119, 1-(1,3-benzodioxol-5-ylcarbonyl)-4-[3-(3-methoxybenzyl)-1,2,4-thiadiazol-5-yl]-2-methylpiperazine]	72%	0.095 µg/mL (≈ 0.21 µM)
CCCCc1ccc(C(=O)N2CCN(c3nc(Cc4ccc(F)cc4)ns3)CC2C)cc1 (centres unmarked) [Compound 120, 1-(4-butylbenzoyl)-4-[3-(4-fluorobenzyl)-1,2,4-thiadiazol-5-yl]-2-methylpiperazine]	120%	0.0987 µg/mL (≈ 0.218 µM)
CCCCCCc1ccc(C(=O)N2CCN(c3nc(Cc4ccc(F)cc4)ns3)CC2)cc1 [Compound 121, 1-(4-hexylbenzoyl)-4-[3-(4-fluorobenzyl)-1,2,4-thiadiazol-5-yl]piperazine]	64%	0.12 µg/mL (≈ 0.257 µM)
CC1CN(c2nc(Cc3ccc(F)cc3)ns2)CCN1C(=O)c1cccc(Cl)c1 (centres unmarked) [Compound 122, 1-(3-chlorobenzoyl)-4-[3-(4-fluorobenzyl)-1,2,4-thiadiazol-5-yl]-2-methylpiperazine]	92%	0.14 µg/mL (≈ 0.325 µM)
COc1cccc(Cc2nsc(N3CCN(C(=O)c4ccc(F)cc4)C(C)C3)n2)c1 (centres unmarked) [Compound 123, 1-(4-fluorobenzoyl)-4-[3-(3-methoxybenzyl)-1,2,4-thiadiazol-5-yl]-2-methylpiperazine]	95%	0.14 µg/mL (≈ 0.328 µM)
COc1cccc(Cc2nsc(N3CCN(C(=O)c4ccc(C)cc4)C(C)C3)n2)c1 (centres unmarked) [Compound 124, 1-(4-methylbenzoyl)-4-[3-(3-methoxybenzyl)-1,2,4-thiadiazol-5-yl]-2-methylpiperazine]	57%	0.14 µg/mL (≈ 0.331 µM)

Compound	%I	EC50
CC1CN(c2nc(Cc3ccc(Cl)cc3)ns2)CCN1C(=O)c1cccc(F)c1 (centres unmarked) [Compound 125, 1-(3-fluorobenzoyl)-4-[3-(4-chlorobenzyl)-1,2,4-thiadiazol-5-yl]-2-methylpiperazine]	68%	0.16 µg/mL (≈ 0.371 µM)
CC1CN(c2nc(Cc3ccc(F)cc3)ns2)CCN1C(=O)c1ccccc1 (centres unmarked) [Compound 126, 1-benzoyl-4-[3-(4-fluorobenzyl)-1,2,4-thiadiazol-5-yl]-2-methylpiperazine]	63%	0.21 µg/mL (≈ 0.53 µM)
CC1CN(c2nc(Cc3ccc(F)cc3)ns2)CCN1C(=O)c1ccc(F)cc1 (centres unmarked) [Compound 127, 1-(4-fluorobenzoyl)-4-[3-(4-fluorobenzyl)-1,2,4-thiadiazol-5-yl]-2-methylpiperazine]	108%	0.23 µg/mL (≈ 0.555 µM)
CC1CN(c2nc(Cc3ccc(F)cc3)ns2)CCN1C(=O)c1ccc(C(C)(C)C)cc1 (centres unmarked) [Compound 128, 1-(4-tert-butylbenzoyl)-4-[3-(4-fluorobenzyl)-1,2,4-thiadiazol-5-yl]-2-methylpiperazine]	95%	0.24 µg/mL (≈ 0.53 µM)
CC1CN(c2nc(Cc3ccc(F)cc3)ns2)CCN1C(=O)c1ccc(-c2ccccc2)cc1 (centres unmarked) [Compound 129, 1-(1,1'-biphenyl-4-ylcarbonyl)-4-[3-(4-fluorobenzyl)-1,2,4-thiadiazol-5-yl]-2-methylpiperazine]	61%	0.24 µg/mL (≈ 0.508 µM)
CCc1ccc(C(=O)N2CCN(c3nc(Cc4ccc(C)cc4)ns3)CC2)cc1 [Compound 131, 1-(4-ethylbenzoyl)-4-[3-(4-methylbenzyl)-1,2,4-thiadiazol-5-yl]piperazine]	91%	0.25 µg/mL (≈ 0.615 µM)
CC1CN(c2nc(Cc3ccc(F)cc3)ns2)CCN1C(=O)c1ccc2ccccc2c1 (centres unmarked) [Compound 132, 1-(2-naphthoyl)-4-[3-(4-fluorobenzyl)-1,2,4-thiadiazol-5-yl]-2-methylpiperazine]	74%	0.26 µg/mL (≈ 0.582 µM)
COc1ccccc1C(=O)N1CCN(c2nc(Cc3ccc(F)cc3)ns2)CC1C (centres unmarked) [Compound 133, 1-(2-methoxybenzoyl)-4-[3-(4-fluorobenzyl)-1,2,4-thiadiazol-5-yl]-2-methylpiperazine]	118%	0.29 µg/mL (≈ 0.68 µM)
CCCCCc1ccc(C(=O)N2CCN(c3nc(Cc4ccc(C)cc4)ns3)CC2C)cc1 (centres unmarked) [Compound 134, 1-(4-pentylbenzoyl)-4-[3-(4-methylbenzyl)-1,2,4-thiadiazol-5-yl]-2-methylpiperazine]	75%	0.3 µg/mL (≈ 0.648 µM)
CC1CN(c2nc(Cc3ccc(F)cc3)ns2)CCN1C(=O)c1ccc(Br)cc1 (centres unmarked) [Compound 135, 1-(4-bromobenzoyl)-4-[3-(4-fluorobenzyl)-1,2,4-thiadiazol-5-yl]-2-methylpiperazine]	73%	0.31 µg/mL (≈ 0.652 µM)
COc1ccc(C(=O)N2CCN(c3nc(Cc4ccc(F)cc4)ns3)CC2C)c(OC)c1 (centres unmarked) [Compound 136, 1-(2,4-dimethoxybenzoyl)-4-[3-(4-fluorobenzyl)-1,2,4-thiadiazol-5-yl]-2-methylpiperazine]	83%	0.34 µg/mL (≈ 0.745 µM)
O=C(c1cc(Cl)cc(Cl)c1)N1CCN(c2nc(Cc3ccc(F)cc3)ns2)CC1 [Compound 137, 1-(3,5-dichlorobenzoyl)-4-[3-(4-fluorobenzyl)-1,2,4-thiadiazol-5-yl]piperazine]	68%	0.35 µg/mL (≈ 0.775 µM)
O=C(c1cccc(Cl)c1)N1CCN(c2nc(Cc3ccc(F)cc3)ns2)CC1 [Compound 138, 1-(3-chlorobenzoyl)-4-[3-(4-fluorobenzyl)-1,2,4-thiadiazol-5-yl]piperazine]	81%	0.36 µg/mL (≈ 0.863 µM)
Cc1ccc(C(=O)N2CCN(c3nc(Cc4ccc(F)cc4)ns3)CC2C)cc1 (centres unmarked) [Compound 139, 1-(4-methylbenzoyl)-4-[3-(4-fluorobenzyl)-1,2,4-thiadiazol-5-yl]-2-methylpiperazine]	87%	0.4 µg/mL (≈ 0.974 µM)
Cc1ccccc1C(=O)N1CCN(c2nc(Cc3ccc(F)cc3)ns2)CC1C (centres unmarked) [Compound 140, 1-(2-methylbenzoyl)-4-[3-(4-fluorobenzyl)-1,2,4-thiadiazol-5-yl]-2-methylpiperazine]	56%	0.45 µg/mL (≈ 1.1 µM)
Cc1ccc(C(=O)N2CCN(c3nc(Cc4ccc(F)cc4)ns3)CC2)cc1 [Compound 141, 1-(4-methylbenzoyl)-4-[3-(4-fluorobenzyl)-1,2,4-thiadiazol-5-yl]piperazine]	75%	0.49 µg/mL (≈ 1.24 µM)
CC1CN(c2nc(Cc3ccc(F)cc3)ns2)CCN1C(=O)c1cccc(Br)c1 (centres unmarked) [Compound 142, 1-(3-bromobenzoyl)-4-[3-(4-fluorobenzyl)-1,2,4-thiadiazol-5-yl]-2-methylpiperazine]	72%	0.5 µg/mL (≈ 1.05 µM)
CCc1ccc(C(=O)N2CCN(c3nc(Cc4cccc(OC)c4)ns3)CC2C)cc1 (centres unmarked) [Compound 143, 1-(4-ethylbenzoyl)-4-[3-(3-methoxybenzyl)-1,2,4-thiadiazol-5-yl]-2-methylpiperazine]	89%	0.56 µg/mL (≈ 1.28 µM)

— EP1981504B1, “THIADIAZOLE DERIVATIVES FOR THE TREATMENT OF NEURO DEGENERATIVE DISEASES” (NV reMYND, priority 2006, dated 2007)
